Experimental data published in patent publication US20080269293A1, “PYRAZOLE DERIVATIVES AS ANTI-PLATELET AND ANTI-THROMBOTIC AGENTS” (Pfizer Inc., priority 2006, published 2008).
pIC50: −log10 of the molar value.

Biological target: T1, platelet P2Y1 receptor (Homo sapiens, UniProt P47900)
T1 construct: expressed in transfected cells
Assay: P2Y1 receptor binding assay ([β-33P]-2-thiomethyl ADP)
Details: binding of 0.3 nM [β-33P]-2-thiomethyl ADP, hP2Y1 expressing 132N1 cell membrane, 25° C., 60 minutes
Experimental: Conducting P2Y, Receptor Binding Assay
[β−^33P]-2-thiomethyl ADP (2100 Ci/mmol) was purchased from PerkinElmer, Protease Inhibitors Complete, EDTA-free, was purchased from Roche, and ADP (Adenosine diphosphate), MRS2179, and 2-thiomethy ADP (2-Me-S-ADP) were purchased from Sigma Chemical Co.
Binding of 0.3 nM [β-^33P]-2-thiomethyl ADP to platelet P2Y1 receptor in 132N1 cell membrane was carried out in triplicate at 25° C. with 96 well plate (Corning, 3365). Nonspecific binding was defined as binding in the presence of 1 μM of 2-Me-S-ADP. One […] of dimethyl sulfoxide (DMSO) or 1 μL of DMSO (Sigma-Aldrich, 472301) containing a test compound diluted to final assay concentrations of 0.1 nM to 1 mM were placed into each well of a Corning 96-well plate. A volume of 60 μL of buffer: 50 mM Tris pH 7.5 (Sigma, T-2194), 1 mM EDTA (Gibco, 15575-038) and 100 mM NaCl (Gibco, 200740-011) containing 0.3 nM [β-^33P]-2-thiomethyl ADP 40 μL of hP2Y1 expressing 132N1 cell membrane prep was added to each well. After incubation on shaker for 60 minutes, The contents of the wells are filtered and washed 8 times with Tomtec Cell Harvester through UniFilter 96, GF/B plates (PerkinElmer, 6005177) Forty five microliters […] Scintillation cocktail (Ultima-Flo-M) was added into each well and plates counted on a Trilux Microbeta Counter.
• 1. Add 1 μL DMSO or compounds into the wells according to the protocol. • 2. Add 60 μL incubation buffer with [β-^33P]-2-thiomethyl ADP into each well. • 3. Add 40 μL hP2Y1 expressing 132N1 cell membrance prep. Incubate 60 minutes on top of the shaker (IKA Shutter MTS4). • 4. Filter and wash 8× with Tomtec Cell Harvester through UniFilter GF/B plates (PerkinElmer, 6005177). • 5. Add 45 μL scintillation cocktail into each well and plates counted on a Trilux Microbeta Counter.

T1 sequence (P47900 whole entry): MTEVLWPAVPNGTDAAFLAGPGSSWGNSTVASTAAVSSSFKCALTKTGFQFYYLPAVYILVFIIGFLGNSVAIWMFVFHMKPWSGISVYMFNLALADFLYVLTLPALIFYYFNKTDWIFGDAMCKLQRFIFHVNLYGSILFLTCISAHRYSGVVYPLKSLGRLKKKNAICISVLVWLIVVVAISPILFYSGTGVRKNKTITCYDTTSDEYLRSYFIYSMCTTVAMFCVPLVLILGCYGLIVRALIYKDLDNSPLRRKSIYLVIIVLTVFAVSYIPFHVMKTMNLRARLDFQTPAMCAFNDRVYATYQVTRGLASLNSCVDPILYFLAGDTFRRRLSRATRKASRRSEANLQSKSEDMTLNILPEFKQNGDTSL

Compound: Cc1cc(Oc2ccccc2NC(=O)Nc2ccc(F)c(F)c2F)n(-c2ccccc2)n1 [Example 45]
- pIC50: 5.05

Compound: Cc1cc(Oc2ccccc2NC(=O)Nc2ccc(-n3ccnc3)cc2)n(-c2ccccc2Cl)n1 [Example 100, 1-(4-(1H-imidazol-1-yl)phenyl)-3-(2-(1-(2-chlorophenyl)-3-methyl-1H-pyrazol-5-yloxy)phenyl)urea]
- pIC50: < 5.00

Compound: Cc1cc(Oc2ccccc2NC(=O)Nc2ccc(C3CCNCC3)cc2)n(-c2ccccc2Cl)n1 [Example 120, 1-(2-(1-(2-chlorophenyl)-3-methyl-1H-pyrazol-5-yloxy)phenyl)-3-(4-(piperidin-4-yl)phenyl)urea]
- pIC50: < 5.00

Compound: 1-Phenyl-5-{2-[3-(4-trifluoromethoxy-phenyl)-ureido]-phenoxy}-1H-pyrazole-3-carboxylic acid methyl ester [Example 26]
- pIC50: < 5.00

Compound: Cc1cc(Oc2ccccc2NC(=O)Nc2ccc(C3CCSCC3)cc2)n(-c2ccccc2Cl)n1 [Example 127, 1-(2-(1-(2-chlorophenyl)-3-methyl-1H-pyrazol-5-yloxy)phenyl)-3-(4-(tetrahydro-2H-thiopyran-4-yl)phenyl)urea]
- pIC50: 6.80

Compound: Cc1cc(Oc2ccccc2NC(=O)Nc2ccc(C3CCCCC3)cc2)n(-c2ccccc2Cl)n1 [Example 89, 1-{2-[2-(2-Chloro-phenyl)-5-methyl-2H-pyrazol-3-yloxy]-phenyl}-3-(4-cyclohexyl-phenyl)-urea]
- pIC50: 7.27

Compound: CC(C)c1cc(Oc2ccccc2NC(=O)Nc2ccc(OC(F)(F)F)cc2)n(-c2ccccc2)n1 [Example 29, 1-[2-(5-Isopropyl-2-phenyl-2H-pyrazol-3-yloxy)-phenyl]-3-(4-trifluoromethoxy-phenyl)-urea]
- pIC50: < 5.00

Compound: Cc1cc(Oc2ccccc2NC(=O)Nc2ccc(OC(F)(F)F)cc2)n(-c2cccc(Cl)c2Cl)n1 [Example 4]
- pIC50: 7.05

Compound: COc1cc(NC(=O)Nc2ccccc2Oc2cc(C)nn2-c2ccccc2)cc(OC)c1OC [Example 57]
- pIC50: < 5.00

Compound: Cc1cc(Oc2ccccc2NC(=O)Nc2ccc(-n3cccn3)cc2)n(-c2ccccc2Cl)n1 [Example 99, 1-(4-(1H-pyrazol-1-yl)phenyl)-3-(2-(1-(2-chlorophenyl)-3-methyl-1H-pyrazol-5-yloxy)phenyl)urea]
- pIC50: < 5.00

Compound: CCc1ccccc1-n1nc(C)cc1Oc1ccccc1NC(=O)Nc1ccc(-c2cnco2)cc1 [Example 102, 1-(2-(1-(2-ethylphenyl)-3-methyl-1H-pyrazol-5-yloxy)phenyl)-3-(4-(oxazol-5-yl)phenyl)urea]
- pIC50: 5.92

Compound: Cc1ccc(C)c(NC(=O)Nc2ccccc2Oc2cc(C)nn2-c2ccccc2)c1 [Example 79]
- pIC50: < 5.00

Compound: Cc1cccc(-n2nc(C)cc2Oc2ccccc2NC(=O)Nc2ccc(OC(F)(F)F)cc2)c1 [Example 5]
- pIC50: 6.34

Compound: Cc1cc(Oc2ccccc2NC(=O)Nc2ccc(OC(F)(F)F)cc2)n(-c2ccc(C(C)(C)C)cc2)n1 [Example 97, 1-(2-(1-(4-tert-butylphenyl)-3-methyl-1H-pyrazol-5-yloxy)phenyl)-3-(4-(trifluoromethoxy)phenyl)urea]
- pIC50: 6.47

Compound: Cc1cc(Oc2ccccc2NC(=O)Nc2ccc(OC(F)(F)F)cc2)n(-c2c(Cl)cccc2Cl)n1 [Example 19]
- pIC50: 6.85

Compound: Cc1cc(Oc2ccc(C#N)cc2NC(=O)Nc2ccc(OC(F)(F)F)cc2)n(-c2ccccc2)n1 [Example 32]
- pIC50: < 5.00

Compound: Cc1cc(Oc2ccccc2NC(=O)Nc2c(Cl)cccc2Cl)n(-c2ccccc2)n1 [Example 61]
- pIC50: < 5.00

Compound: COc1ccccc1-n1nc(C)cc1Oc1ccccc1NC(=O)Nc1ccc(OC(F)(F)F)cc1 [Example 11]
- pIC50: 6.00

Compound: CCc1ccccc1-n1nc(C)cc1Oc1ccccc1NC(=O)Nc1ccc(N2CCCCC2)cc1 [Example 110, 1-(2-(1-(2-ethylphenyl)-3-methyl-1H-pyrazol-5-yloxy)phenyl)-3-(4-(piperidin-1-yl)phenyl)urea]
- pIC50: 6.54

Compound: CCc1ccccc1-n1nc(C)cc1Oc1ccccc1NC(=O)Nc1ccc(Cl)cc1 [Example 111, 1-(4-chlorophenyl)-3-(2-(1-(2-ethylphenyl)-3-methyl-1H-pyrazol-5-yloxy)phenyl)urea]
- pIC50: 6.88

Compound: Cc1cc(Oc2ccccc2NC(=O)Nc2ccc(C(C)(C)C(=O)O)cc2)n(-c2ccccc2Cl)n1 [Example 84, 2-[4-(3-{2-[2-(2-Chloro-phenyl)-5-methyl-2H-pyrazol-3-yloxy]-phenyl}-ureido)-phenyl]-2-methyl-propionic acid]
- pIC50: < 5.00

Compound: Cc1cc(Oc2ccccc2NC(=O)Nc2cccc(C#N)c2)n(-c2ccccc2)n1 [Example 46]
- pIC50: < 5.00

Compound: Cc1cc(Oc2ccccc2NC(=O)Nc2c(C)cccc2Cl)n(-c2ccccc2)n1 [Example 62]
- pIC50: < 5.00

Compound: CCc1ccccc1-n1nc(C)cc1Oc1ccccc1NC(=O)Nc1ccc(-c2ccccc2)cc1 [Example 91, 1-(4-(phenyl)phenyl)-3-(2-(1-(2-ethylphenyl)-3-methyl-1H-pyrazol-5-yloxy)phenyl)urea]
- pIC50: 7.06

Compound: Cc1cc(Oc2ccccc2NC(=O)Nc2ccc(CO)cc2)n(-c2ccccc2Cl)n1 [Example 87, 1-{2-[2-(2-Chloro-phenyl)-5-methyl-2H-pyrazol-3-yloxy]-phenyl}-3-(4-hydroxymethyl-phenyl)-urea]
- pIC50: < 5.00

Compound: Cc1cc(C)cc(NC(=O)Nc2ccccc2Oc2cc(C)nn2-c2ccccc2)c1 [Example 43]
- pIC50: 5.12

Compound: Cc1cc(Oc2ccccc2NC(=O)Nc2ccc(-c3ccccc3)cc2)n(-c2ccccc2Cl)n1 [Example 96, 1-(4-(phenyl)-phenyl)-3-(2-(1-(2-chlorophenyl)-3-methyl-1H-pyrazol-5-yloxy)phenyl)urea]
- pIC50: 6.75

Compound: COc1cc(NC(=O)Nc2ccccc2Oc2cc(C)nn2-c2ccccc2)cc(OC)c1 [Example 80]
- pIC50: < 5.00

Compound: Cc1cc(Oc2ccccc2NC(=O)Nc2ccc(OC(F)(F)F)cc2)n(-c2ccccc2C)n1 [Example 1, 1-[2-(5-Methyl-2-o-tolyl-2H-pyrazol-3-yloxy)-phenyl]-3-(4-trifluoromethoxy-phenyl)-urea]
- pIC50: 6.82

Compound: Cc1cc(Oc2ccccc2NC(=O)Nc2ccc(C(C)(C)CO)cc2)n(-c2ccccc2Cl)n1 [Example 85, 1-{2-[2-(2-Chloro-phenyl)-5-methyl-2H-pyrazol-3-yloxy]-phenyl}-3-[4-(2-hydroxy-1,1-dimethyl-ethyl)-phenyl]-urea]
- pIC50: < 5.00

Compound: Cc1cc(Oc2ccccc2NC(=O)Nc2c(Cl)cccc2C(F)(F)F)n(-c2ccccc2)n1 [Example 59]
- pIC50: < 5.00

Compound: CC(=O)c1ccc(NC(=O)Nc2ccccc2Oc2cc(C)nn2-c2ccccc2Cl)cc1 [Example 118, 1-(4-acetylphenyl)-3-(2-(1-(2-chlorophenyl)-3-methyl-1H-pyrazol-5-yloxy)phenyl)urea]
- pIC50: < 5.48

Compound: CCc1ccccc1-n1nc(C)cc1Oc1ccccc1NC(=O)Nc1ccc(C#N)cc1 [Example 101, 1-(4-cyanophenyl)-3-(2-(1-(2-ethylphenyl)-3-methyl-1H-pyrazol-5-yloxy)phenyl)urea]
- pIC50: 5.99

Compound: Cc1cc(Oc2ccccc2NC(=O)Nc2ccc(C3CCS(=O)(=O)CC3)cc2)n(-c2ccccc2Cl)n1 [Example 129]
- pIC50: < 5.00

Compound: Cc1cc(Oc2ccccc2NC(=O)Nc2ccc(C(C)(C)C)cc2)n(-c2ccccc2)n1 [Example 12]
- pIC50: 6.68

Compound: COc1cccc(Oc2cc(C)nn2-c2ccccc2)c1NC(=O)Nc1ccc(OC(F)(F)F)cc1 [Example 33]
- pIC50: < 5.00

Compound: COc1ccc(NC(=O)Nc2ccccc2Oc2cc(C)nn2-c2ccccc2)cc1Cl [Example 42]
- pIC50: 5.16

Compound: Cc1cc(Oc2ccccc2NC(=O)Nc2ccc(OC(F)(F)F)cc2)n(-c2ccccc2F)n1 [Example 9]
- pIC50: 6.60

Compound: Cc1ccc(-n2nc(C)cc2Oc2ccccc2NC(=O)Nc2ccc(OC(F)(F)F)cc2)cc1 [Example 10]
- pIC50: 6.73

Compound: Cc1cc(Oc2ccccc2NC(=O)Nc2ccc(C3CC3)cc2)n(-c2ccccc2Cl)n1 [Example 123, 1-(2-(1-(2-chlorophenyl)-3-methyl-1H-pyrazol-5-yloxy)phenyl)-3-(4-cyclopropylphenyl)urea]
- pIC50: 6.92

Compound: Cc1cc(Oc2ccccc2NC(=O)Nc2ccc(C(C)N(C)C)cc2)n(-c2ccccc2Cl)n1 (stereo not shown) [Example 117, 1-(2-(1-(2-chlorophenyl)-3-methyl-1H-pyrazol-5-yloxy)phenyl)-3-(4-(1-(dimethylamino)ethyl)phenyl)urea]
- pIC50: < 5.00

Compound: O=C(Nc1ccc(OC(F)(F)F)cc1)Nc1ccccc1Oc1ccnn1-c1ccccc1 [Example 24, 1-[2-(2-Phenyl-2H-pyrazol-3-yloxy)-phenyl]-3-(4-trifluoromethoxy-phenyl)-urea]
- pIC50: 6.51

Compound: CCc1ccccc1-n1nc(C)cc1Oc1ccccc1NC(=O)Nc1ccc(CN2CCCCC2)cc1 [Example 105, 1-(2-(1-(2-ethylphenyl)-3-methyl-1H-pyrazol-5-yloxy)phenyl)-3-(4-(piperidin-1-ylmethyl)phenyl)urea]
- pIC50: < 5.00
